The source of these data is patent US7476662B2, “Substituted tetracyclic imidazole derivatives, processes for their preparation, pharmaceutical compositions comprising them and their use as a medicine” (Janssen Pharmaceutica N.V., priority 2001, dated 2009).

Data set [1] has as its system Sprague-Dawley rats. Description: Dose response of a 10 min infusion in the rat CHI model. Format: in vivo. An excerpt:
A clinically relevant rat model for traumatic brain injury was used to test the compounds according to the invention. This model mimics several clinical features of traumatic brain injury, such as increased ICP, decreased cerebral perfusion pressure, morphologic alterations including diffuse axonal injury, neuronal necrosis and contusion, impairment of autoregulation of cerebral blood flow and reduction of brain oxygenation and was applied for screening drugs with ICP-lowering effects. Trauma was induced in intubated, isoflurane anesthetized (1.5% isoflurane in a mixture of 30% O2 and 70% N2O) Sprague-Dawley rats (380-400 g) stereotaxically positioned on a table mounted on 4 springs. A 400 g steel cylinder, protected with a 9 mm diameter silicon disc, was dropped on the unprotected skull from a height of either 70 cm or 50 cm (respectively ‘severe’ and ‘moderate’ head injury). The impact area was centered between bregma and lamda. ICP was recorded using a Codman microsensor probe inserted in the parietal cortex. In both severe and moderate head injuries the ICP increased immediately after trauma and remained elevated for several days. The severe head injury mode was used for the evaluation of pharmacological effects immediately after trauma (screening procedure). When survival and recovery from anesthesia was envisaged, the moderate head injury mode was applied. In pharmacological studies, animals with a pathological ICP between 12.5 and 35 mm Hg were included. The changes in ICP, mean arterial blood pressure (MABP) and cerebral perfusion pressure CPP (=[…]) were expressed as percentage of the initial value at onset of the treatment. Screening procedure: On a weekly base, 4 treated groups of 3 rats were compared with 3 saline treated animals. Since conventional statistical methods require a larger amount of animals, a sequential procedure was used. Sequential methods operate in different stages. […] Given the biological relevant level of activity that must be detected, the expected fraction of false positive and negative results was known and fixed. […]

The next data set deals with rat brain. Description: Near-infrared spectroscopy (NIRS) of the rat brain: brain hemoglobin concentration and oxygenation after moderate head injury. Type of data set: in vivo. The conditions noted are these: 24 h after moderate head injury; i.v. 0.5 mg/kg.min 10 min then 0.1 mg/kg.min 45 min. From the text:
Near-infrared spectroscopy (NIRS) of the rat brain ‘in vivo’ allows to quantify non-invasively saturation of brain haemoglobin with oxygen (HbSat) and total brain haemoglobin concentration ([HbTot]). The latter is a measure for cerebral blood volume (CBV). Changes in the redox state of the mitochondrial enzyme cytochrome oxidase (CytOx), an indicator for tissue oxygenation, can also be monitored.
HbSat is not affected by compound 1 and the racemate (Comp. 1 and Comp. 2).

Another data set has as its system non-traumatised rats. Description: ICP, MABP and CPP in anaesthetised non-traumatised rats. Conditions: i.v. 0.5 mg/kg/min during 10 minutes, followed by 0.1 mg/kg/min during 50 min. Format: in vivo, rat. As to the method:
The effect of Compound 2, Compound 1 and Racemate (comp. 1 and comp. 2) on ICP, MABP and CPP was tested in anaesthetised non-traumatised rats. The compounds were administered i.v. and the same dose was given as in traumatized rats (0.5 mg/kg/min during 10 minutes, followed by 0.1 mg/kg/min during 50 min).

The test system of the next data set is traumatized rats. Description: Repeated application on elevated ICP in traumatized rats. Conditions: i.v. 1 mg/kg/min during 10 min, repeated, FIG. 3. Format: in vivo, rat. Here is the method:
Compound 1 was given 2 times with intermittent periods of 20 min at a i.v. dose of 1 mg/kg/min during 10 min, starting a first time 20 min after induction of severe head injury.
Mannitol was given i.v. in the same time windows as Compound 1 at a dose of 0.125 g/kg/min. The control animals received the solvent (containing 10% HP-β-CD, pH 4) only.
This effect is amplified after termination of each, infusion period.

The next data set relates to Rhesus monkeys. Description: ICP in anaesthetised non-traumatised Rhesus monkeys. Format: in vivo, Rhesus monkey. Conditions: i.v. infusion 2.5 and 5 mg/kg over 2.5 and 5 min (n=2/condition). As to the method:
The effect of Compound 1 on ICP was tested in a limited number of anaesthetised non-traumatised Rhesus monkeys with a i.v. infusion of a dose of 2.5 and 5 mg/kg over 2.5 and 5 min respectively (n=2/condition).

The next data set relates to rabbits. Description: Cold lesion-induced rise of ICP in rabbits. Type of data set: in vivo, rabbit. Conditions: rabbits one day after cryo-lesion. Here is the method:
Cryo-lesions were induced in adult rabbits to obtain a pathological ICP that is caused by tissue oedema. A 8 mm stainless steel rod was placed at predetermined coordinates on the exposed skull of deeply anaesthetised rabbits and cooled for […] with liquid nitrogen. One day later the animals were re-anaesthetised and ICP and blood pressure continuously recorded as described for the rat. After a stabilisation period of 15 min, Compound 1 was infused for 10 min at a dose of 2 mg/kg/min. Solvent (preclinical formulation containing 10% HP-β-CD, pH 4) was given for 10 min at a rate of […].

The subject of data set [2] is Sprague-Dawley rats. Description: Changes in relevant physiological variables during treatment after severe CHI in rats. Format: in vivo, rat. Conditions: median average change over entire treatment period, % change of initial value; 0.5 mg/kg/min 10 min then 0.1 mg/kg/min 50 min, started 20 min after severe CHI; n = 10. From the text: A clinically relevant rat model for traumatic brain injury was used to test the compounds according to the invention. This model mimics several clinical features of traumatic brain injury, such as increased ICP, decreased cerebral perfusion pressure, morphologic alterations including diffuse axonal injury, neuronal necrosis and contusion, impairment of autoregulation of cerebral blood flow and reduction of brain oxygenation and was applied for screening drugs with ICP-lowering effects. Trauma was induced in intubated, isoflurane anesthetized (1.5% isoflurane in a mixture of 30% O2 and 70% N2O) Sprague-Dawley rats (380-400 g) stereotaxically positioned on a table mounted on 4 springs. A 400 g steel cylinder, protected with a 9 mm diameter silicon disc, was dropped on the unprotected skull from a height of either 70 cm or 50 cm (respectively ‘severe’ and ‘moderate’ head injury). The impact area was centered between bregma and lamda. ICP was recorded using a Codman microsensor probe inserted in the parietal cortex. In both severe and moderate head injuries the ICP increased immediately after trauma and remained elevated for several days. The severe head injury mode was used for the evaluation of pharmacological effects immediately after trauma (screening procedure). When survival and recovery from anesthesia was envisaged, the moderate head injury mode was applied. In pharmacological studies, animals with a pathological ICP between 12.5 and 35 mm Hg were included. The changes in ICP, mean arterial blood pressure (MABP) and cerebral perfusion pressure CPP (=[…]) were expressed as percentage of the initial value at onset of the treatment. Screening procedure: On a weekly base, 4 treated groups of 3 rats were compared with 3 saline treated animals. Since conventional statistical methods require a larger amount of animals, a sequential procedure was used. Sequential methods operate in different stages. At each stage, a group of animals was selected as homogeneous as possible. Animals were randomly allocated to either drugs or saline. The procedure allowed to make the decision of rejecting the drug, accepting the drug as active or to continue with a new group of animals in a next stage. Given the biological relevant level of activity that must be detected, the expected fraction of false positive and negative results was known and fixed. A sequential two-sample grouped rank test was used. […] Despite the variability in the individual data, the procedure consistently accepted reference treatments such as mannitol as active, while controls were rejected.
Treatment was started at 20 min after severe head injury and involved administering a dose of 0.5 mg/kg/min during 10 minutes, followed by 0.1 mg/kg/min during 50 min.

For `Cc1nc2n(C)c3ccccc3n2c(=O)c1CCN1CCC(C2c3ccccc3CCn3c2nc2ccccc23)CC1Cc1ccccc1` (single isomer, unassigned) [Compound 1, (B)[(2α,4β)(A)]3-[2-(4-(11,12-dihydro-6H-benzimidazo [2,1-b][3]benzazepin-6-yl)-2-(phenylmethyl)-1-piperidinyl]ethyl]-2,10-dimethyl-pyrimido[1,2-a]benzimidazol-4(10H)-one (E)-2-butenedioate (2:3) hydrate (1:1)], the “dose starting at which reduction in ICP is statistically significantly larger than in the solvent-treated group” value with Sprague-Dawley rats [1] (10 min infusion) is recorded as at least 1 mg/kg/min. The “effect on ICP during treatment” value with Sprague-Dawley rats [1] (10 min infusion at 0.125, 0.25, 0.5, 1 and 2 mg/kg/min, FIG. 1) was “sustained dose-dependent decrease of ICP”. For the same molecule, the “effect on ICP in the 10 min period following the infusion” value in the data set with Sprague-Dawley rats [1] (after 10 min infusion at 0.125-2 mg/kg/min, FIG. 2) is on record as “highly significant dose-dependent effect on ICP remains present”. In addition, in the data set on rat brain, the “effect on saturation of brain haemoglobin with oxygen (HbSat)” value is “not affected” and the “effect on total brain haemoglobin concentration [HbTot]” value is given as “do not have a significant effect”. Besides, the “effect on ICP, MABP and CPP” value with non-traumatised rats is recorded as “comparable with those obtained in the traumatized animals”. Further, the “effect on ICP during infusion” value with traumatized rats (first 20 min after severe head injury) is “rapid reduction of ICP”. In the data set with traumatized rats, the “effect on ICP after termination of each infusion period” value is given as “amplified” and the “effect on blood pressure” value is reported as “drops during Compound 1 treatment but is restored again after this episode”. For the same molecule, the “pattern of ICP and blood pressure changes during and after infusion” value in the data set with Rhesus monkeys is “resembles the pattern of changes observed in cryo-lesioned rabbits”. For the same molecule, the “blood pressure during infusion” value in the data set on rabbits (2 mg/kg/min for 10 min) is reported as “drops”. Besides, the “effect on ICP during infusion” value in the data set with rabbits (2 mg/kg/min for 10 min, FIG. 4) is reported as “no immediate decrease in ICP”. Also, in the data set with rabbits (after 2 mg/kg/min for 10 min), the “blood pressure when drug infusion is terminated” value was “comes back to the initial value”. In addition, the “effect on ICP when drug infusion is terminated” value with rabbits (after 2 mg/kg/min for 10 min, persists during entire recording period) is “significant ICP reduction”. In addition, in the data set with Sprague-Dawley rats [2], the “CPP (%)” value is −1.9%, the “ETCO2 (%)” value turned out to be 2.2%, the “Heart rate(%)” value is −4.1% and the “ICP (%)” value is −15.4%. In the data set on Sprague-Dawley rats [2], the “MABP (%)” value is reported as −3.6% and the “Resp. rate(%)” value was 5.3%.
